From patent US12343326B2, “Psychoactive medicines and their use for treating psychiatric and neurological conditions and disorders” (Transcend Therapeutics, Inc., priority 2021, dated 2025)
“Also recorded” adds a separate entry of the source. Like-named read-outs stand apart in the source and are kept apart here.

Tests used:
[1] = test system: rats with reserpine-induced pain sensitivity; test: Reserpine-induced fibromyalgia model, von Frey test; assay type: in vivo, rat; conditions: 2C-B 10 and 20 mg/kg; duloxetine positive control; 60-min post-injection
Protocol: Reserpine (1 mg/kg/s.c.) is administered for 3 days to mimic chronic widespread pain and complex symptoms.
In this Example, male Sprague Dawley rats are tested in a behavioral model of FMA based on the protocol from Nakagura et al. (2009) Pain 146:26. This model uses three daily doses of reserpine (1 mg/kg, SC) or 0.5% acetic acid vehicle to reduce pain thresholds (i.e., increase pain perception) in the Von Frey Test (vFT, procedure outlined below).
Von Frey Test (vFT) procedure: Increasing pain thresholds in this test are consistent with a reduction in pain perception. Prior to the start of dosing, rats are tested for their baseline mechanical pain threshold. For von Frey measurements, animals are placed into wire bottom cubicles with opaque Plexiglas walls, allowing access to the underside of their paws. Animals are habituated to this environment for at least 30 minutes before the start of the von Frey filament application. Static allodynia is measured using Semmes-Weinstein von Frey filaments (Stoelting, Wood Dale, IL). Mechanical allodynia is tested by touching the plantar surface of the animals' left and right hind paws with von Frey filaments which deliver a calibrated amount of force. Each von Frey filament is presented perpendicularly to the plantar surface for approximately 6 seconds of constant application in either ascending or descending strength in a modified up-and-down method (Chaplan et al. (1994) J Neurosci. Meth. 53:55). Stimulation is presented at intervals of several seconds, allowing for apparent resolution of any behavioral responses to previous stimuli. A positive response is noted if the paw is sharply withdrawn. Flinching immediately upon removal of the hair is also considered a positive response. […]
VonFrey measurements: Animals were placed into wire bottom cubicles with opaque Plexiglas walls, allowing access to the underside of their paws. […] Static allodynia was measured using Semmes-Weinstein von Frey filaments (Stoelting, Wood Dale, IL). […] The average hindpaw thresholds were determined 60-min post-injection. […]

[2] = test system: rats (Sprague Dawley; Flinders Sensitive Line); conditions: cited from earlier work
Male Sprague Dawley rats = test: Forced Swim Test (FST); assay type: in vivo, rat
Source text: The Forced Swim Test (FST) is a classic, and the most used preclinical behavioral assay to screen compounds with antidepressant-like activity and has high predictive and face validity (Porsolt et al. (1977) Nature 266:730; Borsini and Meli (1988) Psychopharmacology 94:147). The premise of the FST is that when rats are placed into a cylinder filled with water, they will initially try to escape, but over time will become immobile. This increased immobility reflects behavioral despair, modeling a depressive-like state.
Forced Swim Test (FST): In the FST trial, rats were placed in a circular plexiglass container filled with water, with no means of escape. Water temperature was maintained at 22-25° C. and changed for every animal. After an acclimation period, rats were timed for inactivity (failure to struggle), activity, swim time and climbing time. Day 1 consisted of a 15 min acclimation trial, and Day 2 (24 h later) consisted of the 5 min test. A time sampling procedure was employed where animals were observed every 5 sec and scored for immobility, swimming, or climbing. Fluoxetine (10 mg/kg, IP, Sigma Aldrich) or 0.9% sterile saline vehicle (vehicle 3× group) were administered 23.5, 5, and 1 h before testing in the FST. […] The experimenter was blinded to treatment.
Forced Swim Test: In the FST trial, rats were placed in a circular plexiglass container filled with water, with no means of escape. Water temperature was maintained at 22-25° C. and changed for every animal. After an acclimation period, rats were timed for inactivity (failure to struggle), activity, swim time and climbing time. Day 1 consisted of a 15 min acclimation trial, and Day 2 (24 h later) consisted of the 5 min test. A time sampling procedure was employed where animals were observed every 5 sec and scored for immobility, swimming, or climbing. Fluoxetine (10 mg/kg, IP, Sigma Aldrich) or 0.9% sterile saline vehicle (vehicle 3× group) were administered 23.5, 5, and 1 h before testing in the FST. 2C-B (2.5, 10, or 20 mg/kg, IP, Cayman Chemical) or 0.9% saline vehicle (vehicle 1× group) were administered 30 min prior to FST testing. The experimenter was blinded to treatment.
Drug Treatment: Fluoxetine (10 mg/kg, IP, Sigma Aldrich) or 0.9% sterile saline vehicle were administered 23.5, 5, and 1 h before testing in the FST. […] Control animals received fluoxetine alone, methylone alone, or saline vehicle.
Forced Swim Test: In the FST trial, rats were placed in a circular plexiglass container filled with water, with no means of escape. Water temperature was maintained at 22-25° C. and changed for every animal. After an acclimation period, rats were timed for inactivity (failure to struggle), activity, swim time and climbing time. The experimenter and scorer were blind to treatment group. Day 1 consisted of a 15 min acclimation trial, and Day 2 (24 h later) consisted of the 5 min test. A time sampling procedure was employed where animals were observed every 5 sec and scored for immobility, swimming, or climbing.
Control animals received saline vehicle. The dosing schedule and experimental design are found in FIG. 12A.
The FST was performed and scored by an experimenter blind to treatment group according to standard protocols and based on a “modified FST” procedure (Slattery and Cryan (2012) Nat Protoc, 7:1009). Briefly, rats were placed in a circular plexiglass container (29.2 cm diameter, 49.5 cm height) filled with water to a depth of 30 cm so rats could not support themselves by touching the bottom of the tank. Water was maintained at 22-25° C. and was changed for every animal. Day 1 (Training) consisted of a 15 min acclimation trial, and Day 2 (Testing, 24 h later) consisted of the 5 min test. […]

mice = test: Mouse fear extinction paradigm (PTSD model); assay type: in vivo; conditions: MBDB 5 mg/kg IP; day 2
Source text: Effective PTSD treatments facilitate the disassociation between a traumatic memory and the patient's fear response, making cues for the traumatic memory evoke less of a fear response. This is modeled in the mouse fear extinction paradigm (see FIG. 9A) which takes place over 3 days. On day 1 (fear conditioning), mice are trained to acquire a “traumatic memory,” namely associating the conditioned stimulus (CS, tone) to the unconditioned stimulus (US, foot shock). On day 2 (extinction training), they are trained to forget the traumatic memory association by presenting the CS 6 times (with no US) in a novel environment. On day 3 (extinction recall), the mice are “asked” if that tone (CS) still elicits a fearful response, as measured by the time spent freezing when the tone is presented. Less time freezing means better extinction recall. Drugs that improve extinction recall reduce freezing time on day 3, and, therefore, show potential as a PTSD treatment.

[3] = test system: serotonergic terminals in the cortex and hippocampus; conditions: 25 mg/kg IP every 12 hours for 4 days; 2 weeks post-treatment; cited from earlier work
experienced drug users = conditions: cited from earlier work
Male C57Bl/6 mice = test: Cisplatin chemotherapy-induced peripheral neuropathy (CIPN) model, von Frey test; assay type: in vivo, mouse
Protocol: Cisplatin, a platinum-based chemotherapy agent has been used to reduce pain thresholds in a model of CIPN. Effects of acute (single higher dose) or sub-chronic (7 days repeated lower dose) 2C-B on pain thresholds were investigated in cisplatin-treated animals compared with vehicle or cisplatin-treated controls.
Methods: Male C57Bl/6 mice aged 12-16 weeks were used. Cisplatin (2.5 mg/kg) or vehicle was administered on days 1-5 and 11-15.
Vehicle, sub-chronic 2C-B (5 mg/kg once daily days 17-23) or acute 2C-B (20 mg/kg once on day 17) was then administered IP (N=16-18/group). VonFrey testing took place on day 17 (30 min post-dose) and days 21 and 24 (pre-dose) to monitor the effects of 2C-B in cisplatin treated animals, compared with animals receiving cisplatin+vehicle or vehicle+vehicle.
For von Frey measurements, animals were placed into wire bottom cubicles with opaque Plexiglas walls, allowing access to the underside of their paws. Animals were habituated to this environment for at least 30 minutes before the start of the von Frey filament application. Static allodynia was measured using Semmes-Weinstein von Frey filaments (Stoelting, Wood Dale, IL). Mechanical allodynia was tested by touching the plantar surface of the animals' right and left hind paws with von Frey filaments which deliver a calibrated amount of force (0.07, 0.16, 0.4, 0.6. 1.0, 2.0, 4.0, 6.0 g). […]

## CNCC[C@H](Oc1cccc2ccccc12)c1cccs1 [duloxetine, reference compound]
[1]
  animals with complete (maximal) reversal of reserpine-induced pain sensitivity: 44%

## CN(C)CCc1c[nH]c2cccc(OP(=O)(O)O)c12 [psilocybin]
[2]; Hibicke et al. (2020)
  reduction in immobility (FST): 67%

## CNCCC(Oc1ccc(C(F)(F)F)cc1)c1ccccc1 (stereo not drawn) [fluoxetine, reference compound]
Male Sprague Dawley rats; Example 8
  swimming behavior (FST): significantly increased swimming behavior

## CCC(Cc1ccc2c(c1)OCO2)NC (racemic) [MBDB, N-methyl-1-(1,3-benzodioxol-5-yl)-2-aminobutane]
Male Sprague Dawley rats; MBDB 5-30 mg/kg IP, 30 min before testing
  immobility (FST): significantly reduced immobility
mice
  extinction acquisition (freezing, first trial of extinction training): improved extinction acquisition; also recorded: significantly reduced
  locomotor activity: small, but significant increase in locomotor activity
[3]
  serotonergic terminals in the cortex and hippocampus destroyed: 55-60%
Experienced drug users; self-administered under supervision, dose 100 to 300 mg
  serious adverse effects: no serious adverse effects

## CCN(CC)C(=O)[C@@H]1C=C2c3cccc4[nH]cc(c34)C[C@H]2N(C)C1 [LSD, lysergic acid-N,N-diethylamide]
[2]; Hibicke et al. (2020)
  reduction in immobility (FST): 38%

## CNC1(c2ccccc2Cl)CCCCC1=O (stereo not drawn) [ketamine]
[2]; Hibicke et al. (2020)
  reduction in immobility (FST): 30%
[2]; Tizabi et al. (2012)
  reduction in immobility (FST): 60%
[2]; Yang et al. (2013)
  reduction in immobility (FST): 25-55%

## COc1cc(CCN)c(OC)cc1Br [2C-B, 4-Bromo-2,5-dimethoxyphenethylamine]
Male Sprague Dawley rats; 2C-B high-dose group only
  climbing (FST): significantly decreased
Male Sprague Dawley rats; single dose of 2C-B 30 minutes before testing
  swimming (FST): significant increase in swimming
[1]
  animals with complete (maximal) reversal of reserpine-induced pain sensitivity: 100%
Male C57Bl/6 mice; repeated doses of 5 mg/kg, once daily days 17-23
  effect of repeated doses in CIPN model: sustained beneficial effect
Male C57Bl/6 mice; within 30 min of a single dose, 5 or 20 mg/kg IP, day 17
  pain thresholds (von Frey) in cisplatin-treated animals: significantly increased
Experienced drug users; self-administered, dose 10 to 20 mg
  serious adverse effects: no serious adverse effects
